Experimental findings from patent US11285156B2, “Substituted piperazines as KRAS G12C inhibitors” (Amgen Inc., priority 2018, dated 2022) are described below.

Structures are written as SMILES. Read-outs that look alike come from different tables or passages of the source.

The test system of test [1] is Phosphorylation of ERK1/2 in MIA PaCa-2 cells. The test can be described thus: Phospho-ERK1/2 MSD assay in MIA PaCa-2 cells. It is filed as cell-based. The following applies: read-out: p-ERK IC50 (2 h, MiaPaCa-2; μM), 2 h compound treatment, MIA PaCa-2 cells, EGF stimulated. The method in brief: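 Phospho-ERK1/2 measured by MSD electrochemiluminescence kit in RIPA lysates of MIA PaCa-2 cells. Cells were treated with compound titrations for 2 or 4 h at 37 °C, 5% CO2, followed by a 10 min pulse of 10 ng/mL EGF.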

Test [2] addresses GDP-bound KRAS protein (aa 1-169), containing both G12C and C118A amino acid substitutions (Homo sapiens (Human), UniProt P01116, C118A/G12C). The test can be described thus: Coupled nucleotide exchange assay (SOS-mediated nucleotide exchange, AlphaScreen). Type of test: biochemical. The following applies: 5 min compound pre-incubation; for IC50: read-out: Coupled exchange IC50 (5 min; μM). (Alpha assays give light when donor and acceptor beads are brought close together.)

Test [3] relates to Phosphorylation of ERK1/2 in A549 cells. The test can be described thus: Phospho-ERK1/2 MSD assay in A549 cells. It is filed as cell-based. The following applies: Homo sapiens, A549, 2 h, read-out: p-ERK IC50 (2 h, A549; μM), 2 h compound treatment, A549 cells, EGF stimulated. The method in brief:
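MSD electrochemiluminescent read-out of phospho-ERK1/2 in RIPA lysates. Cells in RPMI 1640 with 10% FBS received titrated compound for 2 or 4 h, then 10 ng/mL EGF for 10 min before ice-cold PBS wash and lysis.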

GDP-bound KRAS protein (aa 1-169), containing both G12C and C118A amino acid substitutions, sequence (P01116 other isoform, or with tags, fused parts or gaps G12C/C118A): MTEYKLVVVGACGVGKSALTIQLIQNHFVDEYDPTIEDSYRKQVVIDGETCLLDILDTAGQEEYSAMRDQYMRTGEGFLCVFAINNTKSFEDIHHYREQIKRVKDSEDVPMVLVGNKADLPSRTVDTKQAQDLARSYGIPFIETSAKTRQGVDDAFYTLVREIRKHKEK

For `C=CC(=O)N1C[C@H](C)N(c2nc(=O)n(-c3c(N(C)C)ccnc3C(C)C)c3nc(-c4ccccc4C)c(Cl)cc23)C[C@H]1C` [Example 103-7, 6-Chloro-1-[4-(dimethylamino)-2-isopropyl-3-pvridyl]-4-[(2S,5R)-2,5-dimethyl-4-prop-2-enoyl-piperazin-1-yl]-7-(o-tolyl)pyrido[2,3-d]pyrimidin-2-one], the IC50 (commonly the concentration needed to halve the response being measured) in test [1] came to 0.128 µM; in test [2], 0.143 µM; in test [3] it was 3.75 µM.

In the case of `C=CC(=O)N1C[C@H](C)N(c2nc(=O)n(-c3c(C(C)C)nc(Br)nc3C(C)C)c3nc(-c4ccccc4F)c(Cl)cc23)C[C@H]1C` [Example 106-1, 4-((2S,5R)-4-Acryloyl-2,5-dimethylpiperazin-1-yl)-1-(2-bromo-4,6-diisopropylpyrimidin-5-yl)-6-chloro-7-(2-fluorophenyl)pyrido[2,3-d]pyrimidin-2(1H)-one], the IC50 is 0.096 µM in test [1] (Homo sapiens, MIA PaCa-2, 2 h); 0.08 µM in test [2]; 4.54 µM in test [3].

As to `C=CC(=O)N1CCN(c2nc(=O)n(CC(C)(C)C)c3nc(-c4ccccc4F)c(Cl)cc23)[C@@H](C)C1` [Example 106-2, 6-Chloro-1-(2,2-dimethylpropyl)-7-(2-fluorophenyl)-4-[(2S)-2-methyl-4-prop-2-enoyl-piperazin-1-yl]pyrido[2,3-d]pyrimidin-2-one], the half-inhibitory concentration (IC50) in test [1] (Homo sapiens, MIA PaCa-2, 2 h) is 5.31 µM; in test [2], 1.01 µM; in test [3], greater than 7.5 µM.

Consider `C=CC(=O)N1CCN(c2nc(=O)n(CC(C)(C)C)c3nc(-c4ccccc4F)c(Cl)cc23)C[C@@H]1CO` [Example 106-3, 6-Chloro-1-(2,2-dimethylpropyl)-7-(2-fluorophenyl)-4-[(3R)-3-(hydroxymethyl)-4-prop-2-enoyl-piperazin-1-yl]pyrido[2,3-d]pyrimidin-2-one], for which the 50% inhibitory concentration (IC50) in test [1] (Homo sapiens, MIA PaCa-2, 2 h) was 10 µM; in test [2], 8.34 µM; in test [3], greater than 7.5 µM.

For the molecule `C=CC(=O)N1C[C@H](C)N(c2nc(=O)n(CC(C)(C)OC)c3nc(-c4ccccc4F)c(Cl)cc23)C[C@H]1C` [Example 106-4, 6-Chloro-4-[(2S,5R)-2,5-dimethyl-4-prop-2-enoyl-piperazin-1-yl]-7-(2-fluorophenyl)-1-(2-methoxy-2-methyl-propyl)pyrido[2,3-d]pyrimidin-2-one], the concentration for half-maximal inhibition (IC50) was 2.45 µM in test [1] (Homo sapiens, MIA PaCa-2, 2 h); 5.04 µM in test [2]; greater than 7.5 µM in test [3].

Consider `C=CC(=O)N1CCN(c2nc(=O)n(CC(C)(C)OC)c3nc(-c4ccccc4F)c(Cl)cc23)CC1` [Example 106-5, 6-Chloro-7-(2-fluorophenyl)-1-(2-methoxy-2-methyl-propyl)-4-(4-prop-2-enoylpiperazin-1-yl)pyrido[2,3-d]pyrimidin-2-one], for which the concentration for half-maximal inhibition (IC50) in test [1] (Homo sapiens, MIA PaCa-2, 2 h) is 1.46 µM; in test [2] it was 6.13 µM; in test [3], greater than 7.5 µM.

Turning to `C=CC(=O)N1C[C@@H](C)N(c2nc(=O)n(-c3c(C)ccnc3C(C)C)c3nc(-c4ccccc4F)c(Cl)nc23)[C@@H](C)C1` [Example 106-7-2, 6-Chloro-4-[(2R,6S)-2,6-dimethyl-4-prop-2-enoyl-piperazin-1-yl]-7-(2-fluorophenyl)-1-(2-isopropyl-4-methyl-3-pyridyl)pteridin-2-one], the half-inhibitory concentration (IC50) was 0.271 µM in test [1] (Homo sapiens, MIA PaCa-2, 2 h); 0.129 µM in test [2]; greater than 7.5 µM in test [3].

Take `C=CC(=O)N1C[C@H](C)N(c2nc(=O)n(CC(C)(C)C#N)c3nc(-c4ccccc4F)c(Cl)cc23)C[C@H]1C` [Example 106-8, 3-[6-Chloro-4-[(2S,5R)-2,5-dimethyl-4-prop-2-enoyl-piperazin-1-yl]-7-(2-fluorophenyl)-2-oxo-pyrido[2,3-d]pyrimidin-1-yl]-2,2-dimethyl-propanenitrile]: the 50% inhibitory concentration (IC50) is 1.88 µM in test [1] (Homo sapiens, MIA PaCa-2, 2 h); 3.35 µM in test [2]; greater than 7.5 µM in test [3].

On to `C=CC(=O)N1CCN(c2nc(=O)n(CC(C)(C)C#N)c3nc(-c4ccccc4F)c(Cl)cc23)[C@@H](C)C1` [Example 106-9, 3-[6-Chloro-7-(2-fluorophenyl)-4-[(2S)-2-methyl-4-prop-2-enoyl-piperazin-1-yl]-2-oxo-pyrido[2,3-d]pyrimidin-1-yl]-2,2-dimethyl-propanenitrile], for which the half-maximal inhibitory concentration (IC50) in test [1] (Homo sapiens, MIA PaCa-2, 2 h) is 2.24 µM; in test [2], 3.7 µM; in test [3], greater than 7.5 µM.

For `C=CC(=O)N1C[C@H](C)N(c2nc(=O)n(-c3c(C(C)C)nc(NC)nc3C(C)C)c3nc(-c4ccccc4F)c(Cl)cc23)C[C@H]1C` [Example 107-1, 4-((2S,5R)-4-Acryloyl-2,5-dimethylpiperazin-1-yl)-6-chloro-1-(4,6-diisopropyl-2-(methylamino)pyrimidin-5-yl)-7-(2-fluorophenyl)pyrido[2,3-d]pyrimidin-2(1H)-one], the IC50 in test [1] (Homo sapiens, MIA PaCa-2, 2 h) was found to be 0.064 µM; in test [2] it was 0.026 µM; in test [3] it was 5.57 µM.

Take `C=CC(=O)N1C[C@H](C)N(c2nc(=O)n(-c3c(C(C)C)nc(N(C)C)nc3C(C)C)c3nc(-c4ccccc4F)c(Cl)cc23)C[C@H]1C` [Example 107-2, 6-Chloro-1-[2-(dimethylamino)-4,6-diisopropyl-pyrimidin-5-yl]-4-[(2S,5R)-2,5-dimethyl-4-prop-2-enoyl-piperazin-1-yl]-7-(2-fluorophenyl)pyrido [2,3-d]pyrimidin-2-one]: the half-maximal inhibitory concentration (IC50) in test [1] (Homo sapiens, MIA PaCa-2, 2 h) stood at 0.299 µM; in test [2], 0.098 µM; in test [3], 1.25 µM.

With `C=CC(=O)N1C[C@H](C)N(c2nc(=O)n(-c3c(C(C)C)nc(N4CCOCC4)nc3C(C)C)c3nc(-c4ccccc4F)c(Cl)cc23)C[C@H]1C` [Example 107-3, 6-Chloro-1-(4,6-diisopropyl-2-morpholino-pyrimidin-5-yl)-4-[(2S,5R)-2,5-dimethyl-4-prop-2-enoyl-piperazin-1-yl]-7-(2-fluorophenyl)pyrido [2,3-d]pyrimidin-2-one], the IC50 in test [1] (Homo sapiens, MIA PaCa-2, 2 h) was 0.144 µM; in test [2], 0.114 µM; in test [3], 3.73 µM.

Turning to `C=CC(=O)N1C[C@H](C)N(c2nc(=O)n(-c3c(C(C)C)nc(NCCN(C)C)nc3C(C)C)c3nc(-c4ccccc4F)c(Cl)cc23)C[C@H]1C` [Example 107-4, 6-Chloro-1-[2-[2-(dimethylamino)ethylamino]-4,6-diisopropyl-pyrimidin-5-yl]-4-[(2S,5R)-2,5-dimethyl-4-prop-2-enoyl-piperazin-1-yl]-7-(2-fluorophenyl)pyrido [2,3-d]pyrimidin-2-one], the IC50 is 0.085 µM in test [1] (Homo sapiens, MIA PaCa-2, 2 h); 0.051 µM in test [2]; greater than 7.5 µM in test [3].

Regarding `C=CC(=O)N1C[C@H](C)N(c2nc(=O)n(-c3c(C(C)C)nc(N4CCC4)nc3C(C)C)c3nc(-c4ccccc4F)c(Cl)cc23)C[C@H]1C` [Example 107-5, 1-[2-(Azetidin-1-yl)-4,6-diisopropyl-pyrimidin-5-yl]-6-chloro-4-[(2S,5R)-2,5-dimethyl-4-prop-2-enoyl-piperazin-1-yl]-7-(2-fluorophenyl)pyrido [2,3-d]pyrimidin-2-one], the half-inhibitory concentration (IC50) worked out at 0.3 µM in test [1] (Homo sapiens, MIA PaCa-2, 2 h); 0.103 µM in test [2]; 3.25 µM in test [3].

For the molecule `C=CC(=O)N1C[C@H](C)N(c2nc(=O)n(-c3c(C(C)C)ncnc3C3CC3)c3nc(-c4ccccc4F)c(Cl)cc23)C[C@H]1C` [Example 108-1, 4-((2S,5R)-4-Acryloyl-2,5-dimethylpiperazin-1-yl)-6-chloro-1-(4-cyclopropyl-6-isopropylpyrimidin-5-yl)-7-(2-fluorophenyl)pyrido[2,3-d]pyrimidin-2(1H)-one], the half-inhibitory concentration (IC50) in test [1] was 0.039 µM; in test [2] it was 0.009 µM; in test [3] it was greater than 7.5 µM.

Take `C=CC(=O)N1C[C@H](C)N(c2nc(=O)n(-c3c(C(C)C)ncnc3C3CC3)c3nc(-c4ccccc4C)c(Cl)cc23)C[C@H]1C` [Example 108-2, 6-Chloro-1-(4-cyclopropyl-6-isopropyl-pyrimidin-5-yl)-4-[(2S,5R)-2,5-dimethyl-4-prop-2-enoyl-piperazin-1-yl]-7-(o-tolyl)pyrido[2,3-d]pyrimidin-2-one]: the results for the concentration for half-maximal inhibition (IC50) in test [1], in test [2] and in test [3] were 0.032 µM, 0.049 µM and greater than 7.5 µM, respectively.

As for `C=CC(=O)N1C[C@H](C)N(c2nc(=O)n(-c3c(CC)ncnc3C(C)C)c3nc(-c4ccccc4F)c(Cl)cc23)C[C@H]1C` [Example 109-1, 4-((2S,5R)-4-Acryloyl-2,5-dimethylpiperazin-1-yl)-6-chloro-1-(4-ethyl-6-isopropylpyrimidin-5-yl)-7-(2-fluorophenyl)pyrido[2,3-d]pyrimidin-2(1H)-one], the IC50 in test [1] (Homo sapiens, MIA PaCa-2, 2 h) was 0.052 µM; in test [2], 0.194 µM; in test [3], greater than 7.5 µM.

As to `C=CC(=O)N1C[C@H](C)N(c2nc(=O)n(-c3c(CC)ncnc3C(C)C)c3nc(-c4ccccc4C)c(Cl)cc23)C[C@H]1C` [Example 109-2, 6-Chloro-4-[(2S,5R)-2,5-dimethyl-4-prop-2-enoyl-piperazin-1-yl]-1-(4-ethyl-6-isopropyl-pyrimidin-5-yl)-7-(o-tolyl)pyrido[2,3-d]pyrimidin-2-one], the IC50 in test [1] (Homo sapiens, MIA PaCa-2, 2 h) is 0.098 µM; in test [3], greater than 7.5 µM. Also, the “Coupled exchange IC50 (5 min; μM)” value in test [2] turned out to be 0.107 µM.

In the case of `C=CC(=O)N1C[C@H](C)N(c2nc(=O)n(CC(C)(C)C)c3nc(-c4ccccc4F)c(Cl)cc23)C[C@H]1C` [Example 110-1, 4-((2S,5R)-4-Acryloyl-2,5-dimethylpiperazin-1-yl)-6-chloro-7-(2-fluorophenyl)-1-neopentylpyrido[2,3-d]pyrimidin-2(1H)-one], the IC50 in test [1] (Homo sapiens, MIA PaCa-2, 2 h) was 1.12 µM; in test [2] it was 0.57 µM; in test [3], greater than 7.5 µM.
